# Patent US20230381314A1, “ATTENUATED CANCER CELLS AND METHODS RELATED THERETO” (priority 2020, published 2023)
# How the values were obtained:
# AML model (C1498 cells) = assay: In vivo treatment of AML with adjuvant (chemo-immunotherapy); design: species or system C57BL/6J mice; settings: leukemia-bearing mice, up to 21 days post-tumor inoculation, DOX 5 mg/kg, MPLA 20 μg
# Method: AML model was established by intravenous injection of 5×10^6 C1498 cells on day 0. On day 8 and day 15, saline, LNT cell+Adjuvant, free DOX and LNT cell/DOX+Adjuvant were administrated intravenously with DOX dose of 5 mg/kg and adjuvant (monophosphoryl lipid A, MPLA) 20 μg per mouse. Specifically, MPLA was intravenously injected 10 h post-injection of LNT cell or LNT cell/DOX. The bioluminescence images of mice were captured every 3 days. The exposure time was 2 min. On day 13, 400 μL blood was collected via the orbital vein. 200 μL blood was treated with ACK buffer and centrifuged at 800 g for 8 min to obtain pellets of white blood cells. After staining with BV421-CD3, PE-CD4 and APC-CD8, the samples were analyzed by flow cytometry. Another 200 μL blood in blood serum collection tubes (BD Microtainer 365967) was centrifuged at 3000 rpm for 10 min. The upper serum was detected with the following ELISA kits: IFN-γ (BioLegend 430804) and TNF-α (BioLegend 430904).
compound,measurement,setting,value
"COc1cccc2c1C(=O)c1c(O)c3c(c(O)c1C2=O)C[C@@](O)(C(=O)CO)C[C@@H]3O[C@H]1C[C@H](N)[C@H](O)[C@H](C)O1.Cl [free DOX, Doxorubicin hydrochloride]",AML progression (bioluminescence of AML cancer cells),AML model (C1498 cells),partially inhibited
same,"IC50, in vitro cytotoxicity against C1498 cells",C1498 cells,0.32 µg/mL
